Reference: paper PMC8079784, “The Mechanism of Action of Antigen Processing Independent T Cell Epitopes Designed for Immunotherapy of Autoimmune Diseases” (Frontiers in Immunology, 2021)

Assays:
[1] = system: lymph node cells or splenocytes; assay: T cell anergy: ex vivo proliferation of lymph node cells or splenocytes after dose escalation; assay type: in vivo, mouse (Tg4); details: Tg4 mice, six escalating SC doses, cells three days after sixth dose, 3H-TdR at 72 hours
Protocol: (§1) Tg4 mice were primed with a single dose (80μg) of 4Y in PBS by SC injection. Tolerance induction involved escalating dose immunotherapy (EDI) whereby each Tg4 or tiger-Tg4 mouse was treated with 0.08, 0.8, 8, 80, 80 and 80μg 4Y in PBS by SC injection at the right-side flank every 3rd or 4th day ([20]).
Proliferation was assessed by tritiated thymidine (^3H-TdR) incorporation with either whole splenocytes or isolated APC populations and antigen-specific Tg4 responder CD4^+ T cells. Tg4 whole splenocytes were cultured in 96-well round bottom plates, 2x10^5 whole splenocytes per well, with addition of the indicated concentration of the relevant peptide. Whole splenocytes from B10.PL mice that had received CD4^+ CD45.1^+ T cells followed by CD11c^+ cells were cultured in 48–well plates at 1.25x10^6 per well. […] Levels of incorporated radioactivity were assessed from the dried filter papers, sealed in sample bags (Wallac, Milton Keynes, UK) with 3ml scintillation fluid, ^3H-TdR incorporation was measured on a 1450 MicroBeta liquid scintillation counter (Wallac).
Figure 2 Peptide solubility predicts accessibility to steady state DC and determines tolerance induction: The 4Y peptide was rendered increasingly insoluble by addition of LF motifs. […] Proliferation was measured by tritiated thymidine (^3H-TdR) incorporation at 72 hours. […]

serum IL-10 = assay: Serum IL-10 during dose escalation of SC peptide; assay type: in vivo, mouse (Tg4); details: Tg4 mice, SC dose escalation 0.08 to 80µg every 3rd or 4th day
Protocol: as §1
(§2) MFBI Th1/Th2 Flow Cytomix Multiplex kits (eBioscience) were used to measure the concentration of cytokines in the serum 2 h after s.c. treatment with soluble peptide.
(§3) Figure 3 Impact of soluble versus insoluble peptide treatment on T cell function in Tg4 mice. A single SC dose of soluble 4Y (80µg) induces rapid and high levels of IL-2 into the serum of Tg4 mice (A) when compared to insoluble 4Y-3LF (B). For the data shown in (C), Tg4 mice received a SC injection of 80µg MBP Ac1-9[4Y] or 4Y-3LF. Blood was removed from the tail vein at the specified times following injection, baseline was taken prior to peptide injection and the cellular fraction was stained for flow cytometry. Inguinal lymph node (ILN), brachial lymph node (BLN) and spleen were collected at 48–hours. Percentages of CD4^+ cells were gated on live singlets. […] (*p ≤ 0.05, **p ≤ 0.01, ***p ≤ 0.001, ****p ≤ 0.0001). […] Tg4 mice were given SC injections of PBS containing the indicated doses of 4Y peptide given every 3rd or 4th day (2 doses per week).

serum IL-2 = assay: Serum IL-2 after a single SC dose of peptide; assay type: in vivo, mouse (Tg4); details: Tg4 mice, single SC dose 80µg
Protocol: as §1, §2, §3

Tg4 splenocytes = assay: In vitro antigenicity: proliferation of Tg4 splenocytes (3H-TdR); assay type: cell-based, mouse; details: 2x10^5 per well, 3H-TdR at d3; limiting dose 1 ng/ml
Protocol: Proliferation was assessed by tritiated thymidine (^3H-TdR) incorporation with either whole splenocytes or isolated APC populations and antigen-specific Tg4 responder CD4^+ T cells. Tg4 whole splenocytes were cultured in 96-well round bottom plates, 2x10^5 whole splenocytes per well, with addition of the indicated concentration of the relevant peptide. Whole splenocytes from B10.PL mice that had received CD4^+ CD45.1^+ T cells followed by CD11c^+ cells were cultured in 48–well plates at 1.25x10^6 per well. Isolated populations were plated out at 5x10^4/well CD4^+ T cells, with either equal numbers of CD11c^+ DC, B cells or monocytes enriched as specified. Cells were cultured at 37°C, 5% CO2. At 24 and 72 hours, supernatant was taken for cytokine analysis and medium was supplemented with 0.5µCi ^3H-TdR (GE Healthcare Lifesciences, UK) for 16 hours. Plates were frozen at –20°C in preparation for later harvesting with a Tomtec harvester onto filter papers (Cox Scientific, Kettering, UK). Levels of incorporated radioactivity were assessed from the dried filter papers, sealed in sample bags (Wallac, Milton Keynes, UK) with 3ml scintillation fluid, ^3H-TdR incorporation was measured on a 1450 MicroBeta liquid scintillation counter (Wallac).

CD4 cells = assay: Intracellular cytokine staining of spleen cells for IL-10 after dose escalation; assay type: in vivo, mouse (Tg4); details: Tg4 mice, after the final 80 µg dose of dose escalation
Protocol: as §1
Intracellular cytokine staining of splenocytes was performed after a 3-h stimulation with phorbol 12-myristate 13-acetate (5ng/ml) and ionomycin (500ng/ml) (both Sigma-Aldrich) with GolgiStop (BD Biosciences). Cells were stained with Vβ8-FITC (clone KJ16-133, diluted 1:100) or with fixable viability dye eFluor780 (1:1,000) before surface staining with CD4-Alexa700 (GK1.5, 1:100) and fixation using IC fixation buffer (all from eBioscience). Antibodies for intracellular cytokine staining were diluted in permeabilization buffer; IL-10-allophycocyanin (APC) (JES5-16E3, 1:200), IFN-γ-PerCP-Cy5.5 (XMG1.2, 1:200) (both from eBioscience). Data were collected using an LSR II flow cytometer (BD Biosciences) and analyzed using FlowJo software (Treestar).

splenic CD11c+ DC = assay: In vivo APC targeting after SC peptide: ex vivo presentation to naive Tg4 CD4+ T cells; design: species or system mouse (B10.PL); details: 80µg SC, proliferation of Tg4 CD4+ T cells in vitro
Description: CD11c^+ cells were isolated from whole splenocytes in MACS buffer using the CD11c microbead positive selection kit (Miltenyi Biotec, Surrey, UK) as per the manufacturer’s instructions. Single cell suspensions were used for magnetic selection using the EasySep Mouse B Cell Isolation kit or EasySep Mouse Monocyte Enrichment kit (both Stemcell Technologies, Grenoble, France) as per the manufacturer’s instructions. In the B10.PL APC targeting experiments, single cell suspensions (without digestion) of Tg4 splenocytes were counted and T cells isolated using Magnisort® Mouse CD4 T cell isolation kit (affymetrix, eBioscience, Hatfield, UK) as per the manufacturer’s instructions. Cells were either enriched by magnetic sorting prior to fluorescence-activated cell sorting (FACS) or sorted from splenocytes. […] Peptide bound to APC was detected in vitro by activation of naïve Tg4 cells, as evidenced through ^3H.thymidine incorporation. […] Peptide bound to APC was detected in vitro by activation of CD4^+ T cells from the lymph nodes and spleen of HLA-DR3 transgenic mice immunized with the 5D peptide in CFA. T cell activation was detected by interferon gamma secretion over 3 days.
Proliferation was assessed by tritiated thymidine (^3H-TdR) incorporation with either whole splenocytes or isolated APC populations and antigen-specific Tg4 responder CD4^+ T cells. […]

[2] = system: autoimmune hemolytic anemia; details: cited from earlier work
Description: Previously we have shown that the impact of CD4 T cell epitope administration in the absence of adjuvant depends on peptide solubility. […] Importantly, however, addition of charged residues at the N- and C-termini of the band 3 epitope rendered it both soluble and immuno-modulatory. Unlike the insoluble 861-874 that both primed band 3 reactive inflammatory T cells and promoted generation of pathogenic ...

Row | Substance | Ex vivo proliferation of lymph node cells or splenocytes stimulated with the Ac1-9 peptide [1] | IL-10 detectable in serum (serum IL-10) | Time of peak serum IL-2 after SC injection (serum IL-2) [h] | Antigenicity: proliferation of Tg4 splenocytes in vitro (Tg4 splenocytes) | CD4 cells producing IL-10 (intracellular cytokine staining of spleen cells) (CD4 cells) | Presentation by splenic CD11c+ DC collected 2h after SC administration (splenic CD11c+ DC) | Effect of intranasal administration in NZB mice ([2]; intranasal, no adjuvant) | Solubility of band 3 peptide ([2]; mouse, in vivo)
1 | Ac-ASQYRPSLFLFLF-NH2 [Peptide 4Y-3LF] | partially suppressed | No IL-10 was detectable | 8 | significantly weaker | close to background levels | barely detectable |  | 
2 | 861-874: insoluble peptide epitope from the red blood cell band 3 protein (FVLILTVPLRRVLL; UniProt P02730 861-874, looked up, fragment) [Peptide 861-874] |  |  |  |  |  |  | promote autoimmunity | insoluble
